# Laboratory results published in PMC11532403 (Signal Transduction and Targeted Therapy, 2024).
# pIC50: −log10 of the molar value. Several values for one entry are separate records, joined by “and”; a condition that tells them apart may be missing. Equal entries are not always repeated. Where two headings read alike, the source gives them in different places.
# Columns and labels:
# preclinical animals = assay: Preclinical animal long term (repeat-dose) toxicity tests, species not stated; type: in vivo
# [1] = Plasma protein binding, rapid equilibrium dialysis; type: in vitro ADME; details: dog, read-out: Plasma protein binding rate (converted)
# [2] = test system: Chinese hamster ovary cells; assay: In vitro chromosome aberration test; type: cell-based
# CYP1A2 [3] = biological target: T1, CYP1A2 (Homo sapiens, UniProt P05177); assay: CYP inhibition in human liver microsomes; type: in vitro ADME; details: 0.5-25 μM
# T1 construct: substrates of different CYP450 enzymes in mixed human liver microsomes; from tissue; host or cells: mixed human liver microsomes
# [4] = test system: patients with advanced RET-altered solid tumors; assay: Phase 1 trial: treatment-related adverse events (CTCAE v5.0), DLT, MTD;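 further: Open-label single-arm first-in-human phase 1 study at six Chinese sites with 3 + 3 dose escalation and expansion, adverse events given descriptively as patient counts and percentages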
# Description: This single-arm, open-label, first-in-human, dose-escalation and dose-expansion phase 1 study was conducted across six sites in China (NCT05278364). […] Dose escalation followed a 3 + 3 design, incorporating accelerated titration[41] for the first two dose levels and a modified Fibonacci dose escalation.[42]
# The primary endpoints for this study were to determine the MTD, DLT, RP2D and safety. […] All responses required a confirmation of radiologic assessment at least 4 weeks after the first assessment.
# The Pharmacokinetic Analysis Set (PKAS) included all patients with at least one evaluable PK sample (n = 43). Descriptive statistics were used for baseline data, summarizing continuous data with mean, standard deviation, median, minimum, and maximum, and categorical data with frequency and percentage. Safety analysis was descriptive, including adverse events summarized by frequency and severity. PK parameter analysis was performed using Phoenix WinNonlin version 8.0 (Certara L.P. [Pharsight], St. Louis, MO, USA), and results were summarized using geometric mean and coefficient of variation. CIs for response rates were calculated using the Clopper-Pearson method. […] All analysis were performed with SAS statistical software, version 9.2 (SAS Institute).
# [5] = test system: Salmonella typhimurium and Escherichia coli; type: cell-based
# CYP1A2 [6] = assay: CYP induction in hepatocytes; type: in vitro ADME, human; details: 1, 5, 50 μM, three donors
# CYP2D6 = biological target: T2, CYP2D6 (Homo sapiens, UniProt P10635); assay: CYP inhibition in human liver microsomes; type: in vitro ADME; details: 0.5-25 μM
# T2 construct: substrates of different CYP450 enzymes in mixed human liver microsomes; from tissue; host or cells: mixed human liver microsomes
# NIH-3T3 cells = assay: Proliferation assay (CellTiter-Glo); type: cell-based, murine; details: Mus musculus, NIH3T3; NIH-3T3 (RET-negative); read-out: Cellular Viability IC50
# Description: The cell lines HEK293T, Baf3, TT cell and NIH-3T3 were obtained from the Cell Resource Center, Peking Union Medical College (PCRC). […] All stably transformed BaF3 cells were cultured in RPMI 1640 without IL‐3. […] Cells were cultured at 37 °C under 5 % CO2 and high humidity conditions. […] Cell viability was assessed by luminescence using CellTiter-Glo 2.0 assay (Promega). IC50 curve fitting was performed using GraphPad Prism 9.0.
# [7] = Acute toxicity, single oral gavage; type: in vivo; details: SD, rat, in vivo, oral, read-out: MTD, single dose
# SD rats = assay: Acute toxicity, single oral gavage; type: in vivo; details: acute toxicity study in SD rats
# Caco-2 permeability = type: in vitro ADME, human
# beagles = assay: 28-day repeat-dose toxicity; type: in vivo
# CYP3A4 = biological target: T3, CYP3A4 (Homo sapiens, UniProt P08684); assay: CYP inhibition in human liver microsomes; type: in vitro ADME; details: mixed human liver microsomes, 0.5-25 μM
# T3 construct: substrates of different CYP450 enzymes in mixed human liver microsomes; from tissue; host or cells: mixed human liver microsomes
# T3 sequence (P08684 whole entry): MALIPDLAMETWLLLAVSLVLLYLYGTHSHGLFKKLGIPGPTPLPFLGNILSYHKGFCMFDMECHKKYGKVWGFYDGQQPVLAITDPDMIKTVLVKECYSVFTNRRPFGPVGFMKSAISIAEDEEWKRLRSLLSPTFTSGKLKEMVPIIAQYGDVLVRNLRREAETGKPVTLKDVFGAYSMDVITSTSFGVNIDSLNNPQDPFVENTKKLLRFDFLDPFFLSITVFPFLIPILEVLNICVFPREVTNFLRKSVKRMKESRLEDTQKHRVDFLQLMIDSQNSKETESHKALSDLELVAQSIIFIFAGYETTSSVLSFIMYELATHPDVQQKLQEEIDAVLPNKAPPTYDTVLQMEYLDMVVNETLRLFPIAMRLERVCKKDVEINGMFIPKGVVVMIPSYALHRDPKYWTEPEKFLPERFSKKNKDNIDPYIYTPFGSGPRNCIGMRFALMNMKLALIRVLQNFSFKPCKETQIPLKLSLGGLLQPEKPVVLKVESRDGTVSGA
# T1 sequence (P05177 whole entry): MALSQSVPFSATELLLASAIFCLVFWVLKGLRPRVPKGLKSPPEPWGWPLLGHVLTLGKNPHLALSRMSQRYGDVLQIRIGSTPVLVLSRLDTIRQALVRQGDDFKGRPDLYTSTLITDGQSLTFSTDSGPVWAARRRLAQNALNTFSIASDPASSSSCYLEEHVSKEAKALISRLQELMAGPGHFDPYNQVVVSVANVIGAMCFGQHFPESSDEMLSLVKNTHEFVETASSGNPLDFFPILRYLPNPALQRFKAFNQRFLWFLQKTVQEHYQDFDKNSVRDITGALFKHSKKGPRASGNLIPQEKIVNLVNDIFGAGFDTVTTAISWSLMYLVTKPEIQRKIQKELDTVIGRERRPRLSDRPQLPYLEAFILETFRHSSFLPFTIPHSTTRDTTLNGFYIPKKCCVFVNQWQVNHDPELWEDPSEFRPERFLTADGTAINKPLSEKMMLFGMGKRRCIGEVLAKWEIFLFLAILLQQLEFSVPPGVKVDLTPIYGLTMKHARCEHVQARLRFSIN
# T2 sequence (P10635 whole entry): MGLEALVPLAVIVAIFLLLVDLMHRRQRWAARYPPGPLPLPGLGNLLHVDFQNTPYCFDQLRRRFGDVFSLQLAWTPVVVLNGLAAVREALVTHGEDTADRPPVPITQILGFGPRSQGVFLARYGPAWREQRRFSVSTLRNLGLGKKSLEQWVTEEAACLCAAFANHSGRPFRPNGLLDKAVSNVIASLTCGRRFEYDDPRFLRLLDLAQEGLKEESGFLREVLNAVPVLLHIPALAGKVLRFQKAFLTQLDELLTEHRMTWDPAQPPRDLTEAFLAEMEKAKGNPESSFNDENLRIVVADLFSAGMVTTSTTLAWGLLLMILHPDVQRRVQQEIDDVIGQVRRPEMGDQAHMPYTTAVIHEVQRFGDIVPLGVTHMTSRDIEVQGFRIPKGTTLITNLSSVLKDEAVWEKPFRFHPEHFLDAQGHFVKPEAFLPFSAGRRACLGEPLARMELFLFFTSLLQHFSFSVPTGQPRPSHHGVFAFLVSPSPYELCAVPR
smiles,measurement,setting,value
"COc1ccc(CN2C3CC2CN(c2ccc(-c4cc(N5CC(C)(O)C5)cn5ncc(C#N)c45)cn2)C3)cn1 [SY-5007, 6-(3-hydroxy-3-methylazetidin-1-yl)-4-(6-(6-((6-methoxypyridin-3-yl)methyl)-3,6-diazabicyclo[3.1.1]heptan-3-yl)pyridin-3-yl)pyrazolo[1,5-a]pyridine-3-carbonitrile]",Liver and gallbladder toxicity,preclinical animals; preclinical animal long term toxicity tests,"? Provision is made for the toxicity to the liver and gallbladder found in preclinical animal long term toxicity tests, and for adverse events associated with drugs with a similar mechanism of action to this product."
same,Reproductive toxicity (reproductive tissue weight),preclinical animals; preclinical long toxicity experiments,"? Preclinical long toxicity experiments observed a weight reduction in reproductive tissue, so relevant regulations are made."
same,fraction unbound,[1],0.042
same,Chromosome aberration test result,[2],negative
same,pIC50,CYP1A2 [3],< 4.60
same,Dose-limiting toxicity (DLT),[4]; 20 mg QD to 200 mg BID,No dose-limiting toxicity (DLT) was observed
same,Albuminuria,"[4]; All Grade, Total (n = 122)",45 (36.9) n (%)
same,Anemia,"[4]; All Grade, Total (n = 122)",27 (22.1) n (%)
same,Any TRAE,"[4]; All Grade, Total (n = 122)",96.7 n (%) and 118 (96.7) n (%)
same,Conjugated Hyperbilirubinemia,"[4]; All Grade, Total (n = 122)",23 (18.9) n (%)
same,Diarrhea,"[4]; All Grade, Total (n = 122)",54.1 n (%) and 66 (54.1) n (%)
same,Dry mouth,"[4]; All Grade, Total (n = 122)",40 (32.8) n (%)
same,Facial edema,"[4]; All Grade, Total (n = 122)",35 (28.7) n (%)
same,Hyperbilirubinemia,"[4]; All Grade, Total (n = 122)",51 (41.8) n (%)
same,Hyperglycemia,"[4]; All Grade, Total (n = 122)",22 (18.0) n (%)
same,Hyperphosphatemia,"[4]; All Grade, Total (n = 122)",42 (34.4) n (%)
same,Hypertension,"[4]; All Grade, Total (n = 122)",50 (41.0) n (%)
same,Hypertriglyceridemia,"[4]; All Grade, Total (n = 122)",55 (45.1) n (%)
same,Hyperuricemia,"[4]; All Grade, Total (n = 122)",41 (33.6) n (%)
same,Hypoalbuminemia,"[4]; All Grade, Total (n = 122)",33 (27.0) n (%)
same,Hypocalcemia,"[4]; All Grade, Total (n = 122)",34 (27.9) n (%)
same,Hyponatremia,"[4]; All Grade, Total (n = 122)",23 (18.9) n (%)
same,Hypopotassemia,"[4]; All Grade, Total (n = 122)",19 (15.6) n (%)
same,Hypothyroidism,"[4]; All Grade, Total (n = 122)",38 (31.1) n (%)
same,Increased alanine aminotransferase,"[4]; All Grade, Total (n = 122)",56.6 n (%) and 69 (56.6) n (%)
same,Increased aspartate aminotransferase,"[4]; All Grade, Total (n = 122)",69.7 n (%) and 85 (69.7) n (%)
same,Increased blood alkaline phosphatase,"[4]; All Grade, Total (n = 122)",43 (35.2) n (%)
same,Increased blood creatine,"[4]; All Grade, Total (n = 122)",45 (36.9) n (%)
same,Increased blood creatine phosphokinase,"[4]; All Grade, Total (n = 122)",40 (32.8) n (%)
same,Increased blood creatine phosphokinase MB,"[4]; All Grade, Total (n = 122)",54 (44.3) n (%)
same,Increased blood lactate dehydrogenase,"[4]; All Grade, Total (n = 122)",51 (41.8) n (%)
same,Increased γ-Glutamyl transferase,"[4]; All Grade, Total (n = 122)",28 (23.0) n (%)
same,Leukopenia,"[4]; All Grade, Total (n = 122)",56 (45.9) n (%)
same,Lymphopenia,"[4]; All Grade, Total (n = 122)",30 (24.6) n (%)
same,Neutropenia,"[4]; All Grade, Total (n = 122)",54.1 n (%) and 66 (54.1) n (%)
same,Palmoplantar erythema syndrome,"[4]; All Grade, Total (n = 122)",23 (18.9) n (%)
same,Peripheral edema,"[4]; All Grade, Total (n = 122)",23 (18.9) n (%)
same,Thrombocytopenia,"[4]; All Grade, Total (n = 122)",50 (41.0) n (%)
same,Weakness,"[4]; All Grade, Total (n = 122)",20 (16.4) n (%)
same,Weight loss,"[4]; All Grade, Total (n = 122)",22 (18.0) n (%)
same,Xeromycteria,"[4]; All Grade, Total (n = 122)",21 (17.2) n (%)
same,Conjugated Hyperbilirubinemia,"[4]; Grade ⩾ 3, dose group",0 (0.0) n (%)
same,Dry mouth,"[4]; Grade ⩾ 3, dose group",0 (0.0) n (%)
same,Facial edema,"[4]; Grade ⩾ 3, dose group",0 (0.0) n (%)
same,Hyperglycemia,"[4]; Grade ⩾ 3, dose group",0 (0.0) n (%)
same,Hyperphosphatemia,"[4]; Grade ⩾ 3, dose group",0 (0.0) n (%)
same,Hyperuricemia,"[4]; Grade ⩾ 3, dose group",0 (0.0) n (%)
same,Hypoalbuminemia,"[4]; Grade ⩾ 3, dose group",0 (0.0) n (%)
same,Hypothyroidism,"[4]; Grade ⩾ 3, dose group",0 (0.0) n (%)
same,Increased blood alkaline phosphatase,"[4]; Grade ⩾ 3, dose group",0 (0.0) n (%)
same,Increased blood creatine,"[4]; Grade ⩾ 3, dose group",0 (0.0) n (%)
same,Increased blood lactate dehydrogenase,"[4]; Grade ⩾ 3, dose group",0 (0.0) n (%)
same,Peripheral edema,"[4]; Grade ⩾ 3, dose group",0 (0.0) n (%)
same,Xeromycteria,"[4]; Grade ⩾ 3, dose group",0 (0.0) n (%)
same,Dose discontinuation due to TRAE,[4]; n = 122,2 (1.6%) n (%)
same,Dose interruption due to diarrhea,[4]; n = 122,10.7%
same,Dose interruption due to hypertension,[4]; n = 122,12.3%
same,Dose reduction due to hypertension,[4]; n = 122,5.7%
same,TRAE-induced dose interruption,[4]; n = 122,56 (45.9%) n (%)
same,TRAE-induced dose reduction,[4]; n = 122,29 (23.8%) n (%)
same,Treatment-related deaths,[4]; n = 122,no treatment-related deaths
same,Treatment-related serious adverse events (TRSAEs),[4]; n = 122,13 (10.7%) n (%)
same,Maximum tolerated dose (MTD),[4]; up to 200 mg BID,not reached
same,Ames test result,[5],negative
same,CYP1A2 induction,CYP1A2 [6],no induction
same,pIC50,CYP2D6,< 4.60
same,pIC50,NIH-3T3 cells,< 5.30
same,MTD,"[7]; female, females",500 mg/kg
same,MTD,"[7]; male, males",250 mg/kg
same,Kidney: urea,SD rats,elevated urea
same,Permeability class,Caco-2 permeability,moderately permeable
same,HNSTD,"beagles; female Beagle, GLP long toxicity study",8 mg/kg
same,HNSTD,"beagles; females, 28 days",8 mg/kg
same,HNSTD,"beagles; male Beagle, GLP long toxicity study",4 mg/kg
same,HNSTD,"beagles; males, 28 days",4 mg/kg
same,Bleeding tendency: gastric mucosa and ileum findings,"beagles; preclinical Beagle dogs, repeated dosing","? This drug was found to have gastric mucosal reddening and ileal discolouration in preclinical SD rats and Beagle dogs in repeated dosing tests, so the relevant provisions were made."
same,Electrolyte abnormalities (blood PK),beagles; preclinical Beagle repeated administration,"? Abnormalities such as blood PK were found in the preclinical SD rat and Beagle repeated administration test of this product, and the relevant regulations were carried out in consideration of the fact that similar mechanism of action drugs have been reported."
same,pIC50,CYP3A4,4.74
